Reference: patent publication US9771345B2, “Coferons and methods of making and using them” (Cornell University, priority 2009, dated 2017)

Columns and labels:
[1] = Alizarin Red S displacement: equilibrium between boronic acid and diols or other ligands; assay type: physicochemical; conditions: 0.10 M phosphate buffer, pH 7.4; no Keq range given
From the text: To assess the potential of boronic acid diol pairs as potential summa linkers within Coferons, the Alizarin Red S method was used essentially as described (Springsteen, G. and Wang, B, Tetrahedron 58: 5291-5300 (2002), which is hereby incorporated by reference in its entirety). Alizarin Red S gives a red color when free in solution, and shifts to yellow when complexed to boronic acids.
To determine equilibria between boronic acid species and diols or other ligands, a solution containing 2.0×10^−3 M boronic acid, 1.0×10^−4 M of ARS in 0.10 M phosphate buffer, pH 7.4 was prepared. Diol or other ligands from 3×10^−2 M to 1.0×10^−4 M were serially diluted into the above boronic acid-ARS mix, and absorbance spectra were determined from 350 to 750 nm. (stock solutions were made to 100 mM in DMSO). The higher concentrations of diol would displace the boronic acid from complexation with ARS, liberating free ARS and turning the solution pink. The percent complexed and percent free ARS was determined by comparing absorbance level to fully complexed and free ARS at 440 and 550 nm. The approximate equilibrium constant Keq2 for a given boronic acid-diol complexation was estimated using the formula: Keq=[ARS−PBA]/[ARS]×[PBA] [PBA]=[ARS−PBA]/[ARS]×Keq [Sorb−PBA]=0.002−[PBA]−[ARS−PBA] [Sorb]=Total Sorb−[Sorb−PBA] Keq2=[Sorb PBA]/[Sorb]×[PBA] (where ARS=Alizarin Red S; Sorb=sorbitol; and PBA=Phenylboronic acid as an example).

[2] = LC-MS/MS determination of dimerization of summa linkers; assay type: physicochemical; conditions: for Dimer 4 level: after 115 h
From the text: For summa linkers and coferons that form dimers that are slow to hydrolyze/equilibrate under the chromatographic conditions, evidence for dimerization or oligomerization may be generated using LC-MS/MS methods in which the monomeric and dimeric species are separated by reversed-phase liquid chromatography and identified using tandem mass spectrometric methods, typically utilizing MRM transitions to maximize sensitivity. Often this approach is capable of separating and quantifying isomeric and diastereomeric dimeric states of the summa linker and coferon assemblies.
Typically, a solution of the following homodimeric summa linker was incubated under various conditions of pH, concentration, organic cosolvent, or protein additives, etc. and aliquots were chromatographed on a Primesep 200 (150×4.6 mm, 5μ) RP-HPLC column using a flow rate of 1.0 mL/min and a linear gradient of 0.1% aqueous TFA/acetonitrile over 25-30 minutes. Preparations containing a known amount of dimeric species (as determined by NMR for example) can be employed as a standard to allow for accurate quantitation of monomeric and dimeric states. For example, using such conditions, 4 isomeric dimers of the following racemic amino-cyclobutanone summa linker moiety (RT 7.29 min; example 47; >99.7% monomeric) were quantified under various conditions. When incubated at 0.125 mg/mL at 20° C. at pH 2.0 in 0.1% TFA, dimers-1, -2 & -3 eluting at 15, 15.5 and 16 min, respectively, increased from 0.06%, 0.06% and 0.11% at time zero to 2.35, 2.3%, and 5.2% after 169 h; dimer-4 was not observed under these conditions. […] Complete equilibrium between monomer and dimer-4 was not achieved within this timeframe, as dimer-4 was still increasing at 169 h.

[3] = 0.125 mg/mL, 20° C., pH 2.0 in 0.1% TFA, after 169 h
[4] = 0.125 mg/mL, 20° C., pH 2.0 in 0.1% TFA, time zero

Row | affinity of diol or other ligand for boronic acids in aqueous solution (in words) [1] | Structure (SMILES) | further results
1 | lower affinities for boronic acids | O=C(O)c1c(O)cccc1O [2,6-dihydroxybenzoic acid, 2,6-Dihydroxybenzoic acid] | 
2 | lower affinities for boronic acids | O=C(O)C(O)c1ccccc1F (stereo not shown) [2-fluoromandelic acid, 2-Fluoromandelic acid] | 
3 | lower affinities for boronic acids | O=C(O)C(=O)Cc1ccccc1 [phenylpyruvic acid, Phenylpyruvic acid] | 
4 | lower affinities for boronic acids | O=C(O)C(O)c1ccc(C(F)(F)F)cc1 (stereo not shown) [4-(trifluoromethyl)mandelic acid, 4-(Trifluoromethyl)mandelic acid] | 
5 |  | CCOC(=O)c1cnc(NC2CCC2=O)nc1C (stereo not shown) [Example 47, Ethyl 4-methyl-2-((2-oxocyclobutyl)amino)pyrimidine-5-carboxylate] | dimer-4 formation ([2]; 0.125 mg/mL, 20° C., pH 2.0 in 0.1% TFA): not observed; dimer-1 level [2, 3]: 2.35%; dimer-2 level [2, 3]: 2.3%; dimer-3 level [2, 3]: 5.2%; dimer-1 level [2, 4]: 0.06%; dimer-2 level [2, 4]: 0.06%; dimer-3 level [2, 4]: 0.11%; fraction of dimer-4 at equilibrium ([2]; 0.5 mg/mL, pH7.4 HEPES buffer with BSA): > 14%; Dimer 4 level ([2]; 0.5 mg/mL, pH7.4 HEPES buffer, in the absence of BSA): 4.73%; Dimer 4 level ([2]; 0.5 mg/mL, pH7.4 HEPES buffer, in the presence of BSA): 13.75%; dimer-4 level ([2]; pH7.4 HEPES buffer, 169 h): 1.82%; levels of dimers-1, -2, and -3 ([2]; pH7.4 HEPES buffer, over 169 h): below 0.01%; dimer-4 level ([2]; pH7.4 HEPES buffer, start): < 0.015%
6 | lower affinities for boronic acids | O=C[C@H](O)[C@@H](O)[C@H](O)[C@H](O)CO [D-(+)-glucose, D-(+)-Glucose] | 
7 | lower affinities for boronic acids | CC(O)(C(=O)O)C(F)(F)F (stereo not shown) [3,3,3-Trifluoro-2-hydroxy-2-methylpropionic Acid] | 
8 | lower affinities for boronic acids | O=C(O)C(O)c1cc(F)ccc1F (stereo not shown) [2,5-difluoromandelic acid, 2,5-Difluoromandelic acid] | 
9 | lower affinities for boronic acids | O[C@@H]1CCCC[C@H]1O (relative stereo) [trans-1,2-cyclohexanediol, trans-1,2-Cyclohexanediol] | 
10 | lower affinities for boronic acids | CNc1ccccc1O [2-(methylamino)phenol, 2-(Methylamino)phenol] | 
11 | lower affinities for boronic acids | O=C(NCCO)c1ccccc1O [N-(2-hydroxyethyl)salicylamide, N-(2-Hydroxyethyl)salicylamide] | 
12 | lower affinities for boronic acids | CC(CO)(CO)CO [1,1,1-tris(hydroxymethyl)ethane, 1,1,1-Tris(hydroxymethyl)ethane] | 
13 | lower affinities for boronic acids | O=C(O)C(O)c1cc(F)cc(F)c1 (stereo not shown) [3,5-difluoromandelic acid, 3,5-Difluoromandelic acid] | 
14 | lower affinities for boronic acids | O[C@@H]1CCCC[C@@H]1O [cis-1,2-cyclohexanediol, cis-1,2-Cyclohexanediol] | 
15 | lower affinities for boronic acids | OCC(CO)(CO)CO [pentaerythritol, Pentaerythritol] | 
16 | lower affinities for boronic acids | CC(CO)(CO)C(=O)O [2,2-bis(hydroxymethyl)propionic acid, 2,2-Bis(hydroxymethyl)propionic acid] | 

Row | affinity of diol or other ligand for boronic acids in aqueous solution (in words) [1] | Structure (SMILES) | further results
17 | lower affinities for boronic acids | NC(CO)(CO)CO [tris base (TRIZMA Base), Tris Base (TRIZMA Base)] | 
18 | lower affinities for boronic acids | COc1cccc(CO)c1O [2-hydroxy-3-methoxybenzyl alcohol, 2-Hydroxy-3-methoxybenzyl alcohol] | 
19 | lower affinities for boronic acids | O=C(O)C1(O)CNC1 [3-hydroxyazetidine-3-carboxylic acid] | 
20 | lower affinities for boronic acids | O=C(O)C(O)c1ccc(F)cc1F (stereo not shown) [2,4-difluoromandelic acid, 2,4-Difluoromandelic acid] | 
21 | lower affinities for boronic acids | O[C@@H]1CNC[C@@H]1O [(3S,4R)-pyrrolidine-3,4-diol] | 
22 | lower affinities for boronic acids | O=C(O)C(O)c1cccc(F)c1F (stereo not shown) [2,3-difluoromandelic acid, 2,3-Difluoromandelic acid] | 
23 | lower affinities for boronic acids | O=C(CO)CO [1,3-dihydroxyacetone] | 
24 | lower affinities for boronic acids | CC(C)(O)C(C)(C)O [pinacol, Pinacol] | 
25 | lower affinities for boronic acids | CNCC(O)CO (stereo not shown) [3-methylamino-1,2-propanediol, 3-Methylamino-1,2-propanediol] | 
26 | lower affinities for boronic acids | Cc1ccc(O)c(N)c1 [2-amino-4-methylphenol, 2-Amino-4-methylphenol] | 
27 | lower affinities for boronic acids | CC(N)(CO)CO [2-amino-2-methyl-1,3-propanediol, 2-Amino-2-methyl-1,3-propanediol] | 
28 | lower affinities for boronic acids | CC(=O)Nc1ccccc1O [2-acetamidophenol, 2-Acetamidophenol] | 
29 | lower affinities for boronic acids | O=C(O)C(O)c1ccccc1 (racemic) [DL-mandelic acid, DL-Mandelic acid] | 
30 | lower affinities for boronic acids | O=C(O)c1ccccc1O [salicylic acid, Salicylic acid] | 
31 | lower affinities for boronic acids | O=C(O)C(O)c1c(F)cccc1F (stereo not shown) [2,6-difluoromandelic acid, 2,6-Difluoromandelic acid] | 
32 | lower affinities for boronic acids | CC(O)C(=O)O (stereo not shown) [lactic acid (solution), Lactic acid] | 

Row | Structure (SMILES) | affinity of diol or other ligand for boronic acids in aqueous solution (in words) [1] | further results
33 | O=C([O-])C(=O)CO.[Li+] [hydroxypyruvic acid, lithium salt, Hydroxypyruvic acid, Lithium salt] | lower affinities for boronic acids | 
34 | O=C(O)C(O)(C(F)(F)F)C(F)(F)F [3,3,3-Trifluoro-2-hydroxy-2-(trifluoromethyl)propionic acid] | lower affinities for boronic acids | 
